Several values for one entry are separate records, joined by “and”; a condition that tells them apart may be missing. Identical values can stand only once.
Key:
[1] = target: T1, mutEGFR (D770_N771insSVD) (Homo sapiens, UniProt P00533, DUP768-770); assay: Exon20-Mutant-EGFR(D770_N771insSVD) kinase assay (TR-FRET); type: biochemical; conditions: GST-EGFR ins SVD, 2 mM ATP, 15 min pre-incubation
T1 construct: GST-EGFR #3 (SVD between D770 and N771); made in house; host or cells: Sf9 insect cells (baculovirus)
T1 sequence (P00533 with tags, fused parts or gaps DUP768-770): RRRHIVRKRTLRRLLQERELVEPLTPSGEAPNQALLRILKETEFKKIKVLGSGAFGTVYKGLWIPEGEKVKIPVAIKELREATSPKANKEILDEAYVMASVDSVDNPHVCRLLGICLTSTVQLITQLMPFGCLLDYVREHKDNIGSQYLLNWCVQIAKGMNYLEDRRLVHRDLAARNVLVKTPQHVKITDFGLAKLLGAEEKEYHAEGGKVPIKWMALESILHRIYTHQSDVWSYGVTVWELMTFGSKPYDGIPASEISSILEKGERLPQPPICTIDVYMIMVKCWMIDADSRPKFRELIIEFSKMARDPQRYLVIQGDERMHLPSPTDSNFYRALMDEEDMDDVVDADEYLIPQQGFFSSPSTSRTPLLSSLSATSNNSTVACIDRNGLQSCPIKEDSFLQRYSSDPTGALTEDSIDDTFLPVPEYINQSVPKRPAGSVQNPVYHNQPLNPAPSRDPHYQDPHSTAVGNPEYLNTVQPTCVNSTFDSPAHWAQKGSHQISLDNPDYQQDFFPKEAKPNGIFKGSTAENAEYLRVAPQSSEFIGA
Description: Inhibitory activity of compounds of the present invention against an Epidermal Growth Factor Receptor (EGFR) with an insertion of the amino acids sequence SVD between D770 and N771 was quantified employing the TR-FRET based kinase activity assay as described in the following paragraphs.
A recombinant fusion protein of N-terminal Glutathion-S-Transferase (GST) and a fragment of human EGFR variant (amino acids R669 to A1210 with insertion of the amino acids sequence SVD between D770 and N771 (“EGFR ins SVD”), expressed in Sf9 insect cells and purified via affinity chromatography using Glutathion Sepharose as described above, was used as a kinase. As substrate for the kinase reaction the biotinylated peptide biotin-Ahx-AEEEEYFELVAKKK (SEQ ID NO: 6) (C-terminus in amide form) was used which can be purchased e.g. form the company Biosynthan GmbH (Berlin-Buch, Germany).
For the assay 50 nl of a 100-fold concentrated solution of the test compound in DMSO was pipetted into either a black low volume 384 well microtiter plate or a black 1536 well microtiter plate (both Greiner Bio-One, Frickenhausen, Germany), 2 μl of a solution of EGFR in aqueous assay buffer [50 mM Hepes pH 7.0, 10 mM MgCl2, 1 mM dithiothreitol, 0.5 mM EGTA, 0.3 mM activated sodium ortho-vanadate, 0.005% (w/v) bovine serum albumin, 0.005% (v/v) Tween-20] were added and the mixture was incubated for 15 min at 22° C. to allow pre binding of the test compounds to the enzyme before the start of the kinase reaction. Then the kinase reaction was started by the addition of 3 μL of a solution of adenosine tri phosphate (ATP, 3.33 mM=>final conc. in the 5 μL assay volume is 2 mM) and substrate (1.67 μM=>final conc. in the 5 μL assay volume is 1 μM) in assay buffer and the resulting mixture was incubated for a reaction time of 30 min at 22° C. The concentration of EGFR was adjusted depending of the activity of the enzyme lot and was chosen appropriate to have the assay in the linear range, typical concentration was 15 pg/μl. The reaction was stopped by the addition of 3 μl of a solution of HTRF detection reagents (83.3 nM streptavidine-XL665 [Cisbio Bioassays, Codolet, France] and 1.67 nM PT66-Tb-Cryptate, a terbium-cryptate labelled anti-phospho-tyrosine antibody from Cisbio Bioassays [instead of the PT66 Tb cryptate PT66 Eu Chelate from Perkin Elmer can also be used]) in an aqueous EDTA-solution (133.3 mM EDTA, 0.2% (w/v) bovine serum albumin in 50 mM HEPES pH 7.5).
The resulting mixture was incubated 1 h at 22° C. to allow the binding of the biotinylated phosphorylated peptide to the streptavidine-XL665 and the PT66-Tb-Cryptate. Subsequently the amount of phosphorylated substrate was evaluated by measurement of the resonance energy transfer from the PT66-Tb-Cryptate to the streptavidine-XL665. Therefore, the fluorescence emissions at 620 nm and 665 nm after excitation at 337 nm were measured in a HTRF reader, e.g. a Pherastar (BMG Labtechnologies, Offenburg, Germany) or a Viewlux (Perkin-Elmer). The ratio of the emissions at 665 nm and at […] was taken as the measure for the amount of phosphorylated substrate. The data were normalised (enzyme reaction without inhibitor=0% inhibition, all other assay components but no enzyme=100% inhibition).

Ba/F3-EGFR-insSVD cells = Ba/F3-EGFR-insSVD cells (Homo sapiens, UniProt P00533, DUP768-770, cells depend on it); assay: Ba/F3 cell survival assay (Cell Titer-Glo), EGFR-insSVD; type: cell-based; conditions: 48 h, without IL-3, 10 ng/mL EGF; read-out: BA/F3 (insSVD) IC50
Experimental: (§1) 293T cells from ATCC were transfected with pBABEpuro expression constructs for WT EGFR or EGFR-insSVD, or EGFR-insSVD T790M, and pCL-Eco packaging vector using Fugene-6 transfection reagent from Promega. Plates were incubated at 37° C. for 48 h. Retrovirus was harvested by filtering the media supernatant through a 0.45 μm filter.
(§2) Ba/F3 cells purchased from DSMZ were grown in RPMI+10% FBS+10 ng/mL IL-3 and infected with filtered retroviral supernatant at a 1:2 dilution. Polybrene was added to a concentration of 8 μg/mL, plates were spun for 90 min, and incubated for 16 h at 37° C. 2 μg/mL puromycin was added to the infected cells 24 h after infection and cells were continually grown in the presence of puromycin and 10 ng/mL IL-3. Following stably expressing Ba/F3 cell lines were generated: Ba/F3-EGFR-WT, Ba/F3-EGFR-insSVD, Ba/F3-EGFR-insSVD T790M, (Ba/F3—vector-control).
(§3) For cell survival assays, Ba/F3 cells were grown to a density of 1-2 million cells per mL, spun down and resuspended in media without IL-3, and replated at a concentration 200,000-500,000 cells per mL. The cells ectopically expressing WT EGFR, EGFR-insSVD, or EGFR-insSVD T790M were plated with 10 ng/mL Millipore Culture grade EGF. The cells ectopically expressing pBABEpuro empty vector were plated with 10 ng/mL IL-3.
(§4) 2 days later, cells were plated in 50 μL in a 384 well plate at a concentration of 4000 cells per well for cells assayed in the absence of IL-3 and 2000 cells per well for cells assayed in the presence of IL-3. 100 nL of compound was added to each well using a 100 nL pin head, and plates were incubated at 37° C. for 48 h.
(§5) Cell viability was measured by adding 20 μL of Cell Titer-Glo Luminescent Cell Viability Reagent diluted 1:3 in PBS. Plates were sealed with Perkin Elmer Top-Seal, inverted several times to mix, and immediately centrifuged at 1000 rpm for 2 min. Plates were incubated in low light conditions for 8-10 min and luminescence was measured.

Ba/F3-EGFR-WT cells = Ba/F3-EGFR-WT cells (Homo sapiens, UniProt P00533); assay: Ba/F3 cell survival assay (Cell Titer-Glo), WT EGFR; type: cell-based; conditions: 48 h, without IL-3, 10 ng/mL EGF; read-out: BA/F3 (wild type) IC50
Ba/F3-EGFR-WT cells, sequence (P00533 whole entry, change not shown): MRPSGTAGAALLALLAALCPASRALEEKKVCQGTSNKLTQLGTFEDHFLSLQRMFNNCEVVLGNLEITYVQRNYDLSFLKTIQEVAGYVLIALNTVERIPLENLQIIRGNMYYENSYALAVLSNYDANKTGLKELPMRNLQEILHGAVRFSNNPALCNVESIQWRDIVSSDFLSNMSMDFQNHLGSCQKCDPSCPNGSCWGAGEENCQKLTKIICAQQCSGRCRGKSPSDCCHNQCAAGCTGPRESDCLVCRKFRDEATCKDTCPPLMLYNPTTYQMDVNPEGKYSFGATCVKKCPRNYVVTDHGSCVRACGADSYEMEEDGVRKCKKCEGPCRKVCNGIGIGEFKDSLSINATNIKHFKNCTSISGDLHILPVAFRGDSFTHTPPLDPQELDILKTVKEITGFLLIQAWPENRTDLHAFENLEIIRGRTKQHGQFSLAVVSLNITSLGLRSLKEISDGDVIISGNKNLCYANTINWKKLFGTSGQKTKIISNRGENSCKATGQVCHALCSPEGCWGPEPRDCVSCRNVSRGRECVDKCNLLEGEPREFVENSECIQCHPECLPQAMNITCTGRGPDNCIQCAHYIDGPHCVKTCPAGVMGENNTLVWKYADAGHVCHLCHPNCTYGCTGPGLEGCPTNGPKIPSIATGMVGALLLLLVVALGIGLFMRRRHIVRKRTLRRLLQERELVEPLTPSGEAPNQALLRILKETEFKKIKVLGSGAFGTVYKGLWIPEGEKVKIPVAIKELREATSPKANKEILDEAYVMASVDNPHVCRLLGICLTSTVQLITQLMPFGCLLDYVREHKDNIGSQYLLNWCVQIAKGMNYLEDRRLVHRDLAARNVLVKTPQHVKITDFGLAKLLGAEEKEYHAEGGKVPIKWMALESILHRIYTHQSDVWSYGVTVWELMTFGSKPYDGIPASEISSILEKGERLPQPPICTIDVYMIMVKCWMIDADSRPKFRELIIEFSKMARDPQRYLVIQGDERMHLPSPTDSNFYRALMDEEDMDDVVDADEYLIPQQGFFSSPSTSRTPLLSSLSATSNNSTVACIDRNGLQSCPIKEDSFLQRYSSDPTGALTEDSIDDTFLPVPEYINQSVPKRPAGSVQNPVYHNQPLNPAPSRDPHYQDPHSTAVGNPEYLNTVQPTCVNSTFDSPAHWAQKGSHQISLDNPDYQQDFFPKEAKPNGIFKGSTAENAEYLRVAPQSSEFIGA
Experimental: as §1, §2, §3, §4, §5

[2] = target: Ba/F3-EGFR-L858R T790M cells (Homo sapiens, UniProt P00533, T790M/L858R, cells depend on it); assay: Ba/F3 cell survival assay (Cell Titer-Glo), EGFR-L858R T790M; type: cell-based; conditions: 48 h, without IL-3, 10 ng/mL EGF; read-out: BA/F3 (L858R T790M) IC50
Ba/F3-EGFR-L858R T790M cells, sequence (P00533 whole entry T790M/L858R): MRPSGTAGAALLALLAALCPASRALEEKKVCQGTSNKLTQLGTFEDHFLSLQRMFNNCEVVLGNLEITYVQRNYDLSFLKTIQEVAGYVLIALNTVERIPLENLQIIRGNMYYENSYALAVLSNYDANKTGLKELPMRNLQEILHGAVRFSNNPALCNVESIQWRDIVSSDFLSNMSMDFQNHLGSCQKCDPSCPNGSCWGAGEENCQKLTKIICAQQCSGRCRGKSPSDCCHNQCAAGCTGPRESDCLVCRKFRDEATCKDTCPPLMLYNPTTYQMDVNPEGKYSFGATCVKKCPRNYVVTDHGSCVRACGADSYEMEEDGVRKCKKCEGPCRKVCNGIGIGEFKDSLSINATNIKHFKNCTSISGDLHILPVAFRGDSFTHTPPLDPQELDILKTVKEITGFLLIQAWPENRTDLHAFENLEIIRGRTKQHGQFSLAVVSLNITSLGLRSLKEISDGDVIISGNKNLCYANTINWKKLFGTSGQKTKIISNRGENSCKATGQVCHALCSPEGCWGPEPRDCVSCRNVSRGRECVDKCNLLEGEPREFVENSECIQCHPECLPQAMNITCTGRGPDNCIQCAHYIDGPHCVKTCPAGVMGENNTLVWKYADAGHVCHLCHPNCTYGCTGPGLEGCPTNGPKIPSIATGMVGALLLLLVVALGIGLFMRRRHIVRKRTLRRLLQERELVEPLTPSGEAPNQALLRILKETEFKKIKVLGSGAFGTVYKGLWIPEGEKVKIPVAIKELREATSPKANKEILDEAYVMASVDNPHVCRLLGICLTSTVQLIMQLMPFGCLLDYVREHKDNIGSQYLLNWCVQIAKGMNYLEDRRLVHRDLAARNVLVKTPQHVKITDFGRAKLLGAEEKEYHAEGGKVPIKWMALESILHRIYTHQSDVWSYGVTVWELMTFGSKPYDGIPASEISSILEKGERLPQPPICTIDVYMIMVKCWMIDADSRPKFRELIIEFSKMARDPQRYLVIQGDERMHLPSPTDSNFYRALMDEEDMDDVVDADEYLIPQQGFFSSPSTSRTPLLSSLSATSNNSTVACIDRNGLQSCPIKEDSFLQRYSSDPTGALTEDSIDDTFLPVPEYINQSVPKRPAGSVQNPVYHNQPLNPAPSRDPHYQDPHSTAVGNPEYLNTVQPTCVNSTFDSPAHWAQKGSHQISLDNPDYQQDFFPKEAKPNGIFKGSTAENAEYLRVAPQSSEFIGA
Experimental: as §1, with “EGFR-L858R, EGFR-E746_A750del, EGFR-L858R T790M,” for “WT EGFR”, “EGFR-E746_A750del” for “EGFR-insSVD, or EGFR-insSVD”
as §2, with “Ba/F3-EGFR-L858R, Ba/F3-EGFR-E746_A750del, Ba/F3-EGFR-L858R” for “Ba/F3-EGFR-WT, Ba/F3-EGFR-insSVD, Ba/F3-EGFR-insSVD”, “or Ba/F3-EGFR-E746_A750del T790M.” for “(Ba/F3—vector-control).”
as §3, with “EGFR-L858R, EGFR-E746_A750del, EGFR-L858R T790M,” for “WT EGFR, EGFR-insSVD,”, “EGFR-E746_A750del” for “EGFR-insSVD”
as §4, §5

[3] = target: Ba/F3-EGFR-E746_A750del T790M cells (Homo sapiens, UniProt P00533, DEL746-750/T790M, cells depend on it); assay: Ba/F3 cell survival assay (Cell Titer-Glo), EGFR-E746_A750del T790M; type: cell-based; conditions: 48 h, without IL-3, 10 ng/mL EGF; read-out: BA/F3 (E746_A750del T790M) IC50
Ba/F3-EGFR-E746_A750del T790M cells, sequence (P00533 with tags, fused parts or gaps DEL746-750/T790M): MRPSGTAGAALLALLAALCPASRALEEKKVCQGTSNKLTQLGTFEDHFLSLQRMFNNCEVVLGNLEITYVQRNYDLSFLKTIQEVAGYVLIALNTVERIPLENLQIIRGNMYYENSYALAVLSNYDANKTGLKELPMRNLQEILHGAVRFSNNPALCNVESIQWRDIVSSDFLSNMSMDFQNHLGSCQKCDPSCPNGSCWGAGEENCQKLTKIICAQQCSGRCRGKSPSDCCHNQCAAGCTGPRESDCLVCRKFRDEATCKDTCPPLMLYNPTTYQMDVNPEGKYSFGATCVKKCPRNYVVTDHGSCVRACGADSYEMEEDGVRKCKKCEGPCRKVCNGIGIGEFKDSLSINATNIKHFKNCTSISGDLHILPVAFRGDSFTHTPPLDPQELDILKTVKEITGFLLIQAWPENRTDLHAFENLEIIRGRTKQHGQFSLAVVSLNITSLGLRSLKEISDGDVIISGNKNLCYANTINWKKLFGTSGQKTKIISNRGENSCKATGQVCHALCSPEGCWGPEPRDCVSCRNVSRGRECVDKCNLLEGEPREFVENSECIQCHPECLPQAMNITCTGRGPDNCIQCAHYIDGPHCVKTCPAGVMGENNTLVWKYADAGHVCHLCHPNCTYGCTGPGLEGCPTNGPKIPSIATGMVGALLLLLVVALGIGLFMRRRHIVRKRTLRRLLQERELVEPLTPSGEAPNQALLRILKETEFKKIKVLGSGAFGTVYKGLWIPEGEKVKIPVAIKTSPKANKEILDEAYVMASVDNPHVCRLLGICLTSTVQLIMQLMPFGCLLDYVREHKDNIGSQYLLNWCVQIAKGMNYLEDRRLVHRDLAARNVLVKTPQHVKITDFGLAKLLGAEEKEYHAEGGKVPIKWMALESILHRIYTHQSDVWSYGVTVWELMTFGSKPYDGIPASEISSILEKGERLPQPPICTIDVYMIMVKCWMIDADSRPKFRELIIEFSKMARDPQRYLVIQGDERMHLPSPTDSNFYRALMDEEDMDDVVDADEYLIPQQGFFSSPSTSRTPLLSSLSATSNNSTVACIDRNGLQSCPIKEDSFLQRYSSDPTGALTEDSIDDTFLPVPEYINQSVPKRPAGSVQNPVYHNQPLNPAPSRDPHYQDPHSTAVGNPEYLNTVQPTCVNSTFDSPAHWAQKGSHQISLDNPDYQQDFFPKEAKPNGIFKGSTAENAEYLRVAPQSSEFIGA
Experimental: as §1, with “EGFR-L858R, EGFR-E746_A750del, EGFR-L858R T790M,” for “WT EGFR”, “EGFR-E746_A750del” for “EGFR-insSVD, or EGFR-insSVD”
as §2, with “Ba/F3-EGFR-L858R, Ba/F3-EGFR-E746_A750del, Ba/F3-EGFR-L858R” for “Ba/F3-EGFR-WT, Ba/F3-EGFR-insSVD, Ba/F3-EGFR-insSVD”, “or Ba/F3-EGFR-E746_A750del T790M.” for “(Ba/F3—vector-control).”
as §3, with “EGFR-L858R, EGFR-E746_A750del, EGFR-L858R T790M,” for “WT EGFR, EGFR-insSVD,”, “EGFR-E746_A750del” for “EGFR-insSVD”
as §4, §5

Row | SMILES | IC50 [1] [nM] | GI50 (Ba/F3-EGFR-insSVD cells) [nM] | GI50 (Ba/F3-EGFR-WT cells) [nM] | GI50 [2] | GI50 [3] [nM]
1 | C=CC(=O)NCCOc1cnccc1-c1[nH]c2c(c1Nc1cccc(Cl)c1OC)C(=O)NCC2 [Example 1, N-[2-({4-[3-(3-chloro-2-methoxyanilino)-4-oxo-4,5,6,7-tetrahydro-1H-pyrrolo[3,2-c]pyridin-2-yl]pyridin-3-yl}oxy)ethyl]prop-2-enamide] | 0.155 | 376 | 3030 | > 1000 nM | > 1000
2 | C=CC(=O)NCCOc1cnccc1-c1[nH]c2c(c1Nc1cccc(F)c1C)C(=O)NCC2 [Example 2, N-[2-({4-[3-(3-fluoro-2-methylanilino)-4-oxo-4,5,6,7-tetrahydro-1H-pyrrolo[3,2-c]pyridin-2-yl]pyridin-3-yl}oxy)ethyl]prop-2-enamide] | 0.386 | 57.9 | 907 | 215 nM | 25.2
3 | C=CC(=O)NCCOc1cnccc1-c1[nH]c2c(c1Nc1cccc(Cl)c1C)C(=O)NCC2 [Example 3, N-[2-({4-[3-(3-chloro-2-methylanilino)-4-oxo-4,5,6,7-tetrahydro-1H-pyrrolo[3,2-c]pyridin-2-yl]pyridin-3-yl}oxy)ethyl]prop-2-enamide] | 0.265 | 40.2 | 566 | 201 nM | 32.6
4 | C=CC(=O)NCCCOc1cnccc1-c1[nH]c2c(c1Nc1cccc(Cl)c1OC)C(=O)NCC2 [Example 4, N-[3-({4-[3-(3-chloro-2-methoxyanilino)-4-oxo-4,5,6,7-tetrahydro-1H-pyrrolo[3,2-c]pyridin-2-yl]pyridin-3-yl}oxy)propyl]prop-2-enamide] | 0.305 | 519 | 4420 | > 1000 nM | > 1000
5 | C=CC(=O)N(C)CCOc1cnccc1-c1[nH]c2c(c1Nc1cccc(Cl)c1OC)C(=O)NCC2 [Example 5, N-[2-({4-[3-(3-chloro-2-methoxyanilino)-4-oxo-4,5,6,7-tetrahydro-1H-pyrrolo[3,2-c]pyridin-2-yl]pyridin-3-yl}oxy)ethyl]-N-methylprop-2-enamide] | 0.231 | 5.77 | 68 | 12.9 nM | 3.39
6 | C=CC(=O)N(C)CCOc1cnccc1-c1[nH]c2c(c1Nc1cccc(F)c1OC)C(=O)NCC2 [Example 6, N-[2-({4-[3-(3-fluoro-2-methoxyanilino)-4-oxo-4,5,6,7-tetrahydro-1H-pyrrolo[3,2-c]pyridin-2-yl]pyridin-3-yl}oxy)ethyl]-N-methylprop-2-enamide] | 0.171 | 8.94 | 109 | 26.4 nM | 4.96
7 | C=CC(=O)N(C)CCOc1cnccc1-c1[nH]c2c(c1Nc1ccc(F)cc1)C(=O)NCC2 [Example 7, N-[2-({4-[3-(4-fluoroanilino)-4-oxo-4,5,6,7-tetrahydro-1H-pyrrolo[3,2-c]pyridin-2-yl]pyridin-3-yl}oxy)ethyl]-N-methylprop-2-enamide] | 1.62 | 146 | 366 | 274 nM | 21.9
8 | COc1c(F)cccc1Nc1c(-c2ccncc2OCCN(C)C(=O)/C=C/CN(C)C)[nH]c2c1C(=O)NCC2 [Example 8, (2E)-4-(dimethylamino)-N-[2-({4-[3-(3-fluoro-2-methoxyanilino)-4-oxo-4,5,6,7-tetrahydro-1H-pyrrolo[3,2-c]pyridin-2-yl]pyridin-3-yl}oxy)ethyl]-N-methylbut-2-enamide] | 0.554 | 240 | 4700 | > 1000 nM | 370
9 | COc1c(Cl)cccc1Nc1c(-c2ccncc2OCCN(C)C(=O)/C=C/CN(C)C)[nH]c2c1C(=O)NCC2 [Example 9, (2E)-N-[2-({4-[3-(3-chloro-2-methoxyanilino)-4-oxo-4,5,6,7-tetrahydro-1H-pyrrolo[3,2-c]pyridin-2-yl]pyridin-3-yl}oxy)ethyl]-4-(dimethylamino)-N-methylbut-2-enamide] | 2.48 | 263 | 4520 | 731 nM and > 1000 nM | 183
10 | C=CC(=O)N1CCC[C@H]1COc1cnccc1-c1[nH]c2c(c1Nc1cccc(Cl)c1OC)C(=O)NCC2 [Example 13, 3-(3-chloro-2-methoxyanilino)-2-(3-{[(2S)-1-(prop-2-enoyl)pyrrolidin-2-yl]methoxy}pyridin-4-yl)-1,5,6,7-tetrahydro-4H-pyrrolo[3,2-c]pyridin-4-one] | 0.206 | 6.69 | 51.2 | – | –

Reference: patent US20230416249A1, “N-[2-({4-[3-(ANILINO)-4-OXO-4,5,6,7-TETRAHYDRO-1H-PYRROLO[3,2-C]PYRIDIN-2-YL]PYRIDIN-3-YL)OXY)ETHYL]PROP-2-ENAMIDE DERIVATIVES AND SIMILAR COMPOUNDS AS EGFR INHIBITORS FOR THE TREATMENT OF CANCER” (Bayer Aktiengesellschaft, priority 2020, published 2023)
